{"source": "patent US8999937B2", "about": "“Glucocorticoid induced leucine zipper mimetics as therapeutic agents in multiple sclerosis” (Indiana University Research and Technology Corporation, priority 2011, dated 2015)", "key": {"[1]": {"system": "CD4+ LNC from PLP primed SJL/J mice", "test": "In vitro proliferation ([3H]-thymidine) of PLP139-151 restimulated CD4+ LNC from primed SJL/J mice", "format": "cell-based, mouse", "conditions": "for proliferative response, in words: vs PLP139-151 alone or vs r-GILZ", "method": "CD4+ lymph node cells (LNC) isolated from the draining lymph nodes harvested from SJL/J mice 10 days after immunization with PLP139-151 were cultured in 96-well plates at […] in complete RPMI and restimulated with the PLP peptide (40 μg/ml) for 72 h, including a final 16-h pulse with [^3H]-thymidine. […] Separate cultures stimulated with ova (40 μg/ml) served as control for antigen specificity. Irradiated splenocytes from syngenic mice were used as antigen presenting cells (APC). Cultures were harvested onto glass fiber mats using a Skatron harvester (Skatron, Sterling, Va.), and the levels of [^3H]-thymidine incorporation were determined by liquid scintillation counting (Microbeta; Wallac, Turku, Finland). Results were confirmed by replicate experiments. Data are expressed as Δcpm (counts/min incorporated in antigen-stimulated culture-counts/min incorporated by control unstimulated culture).\n(§1) Supernatants collected at 24 and 48 h were assessed for specific cytokines using the OptEIA kits (BD Biosciences). Proliferation assays included parallel cultures for 72 h with a final 18-h pulse with [^3H]thymidine measured by liquid scintillation counting (Microbeta, Turku, Finland)."}, "[2]": {"system": "T-bet and GATA-3 mRNA", "test": "Real time PCR for T-bet and GATA-3 in CD4+ LNC restimulated in vitro", "format": "cell-based, mouse", "conditions": "CD4+ LNC restimulated in vitro with PLP139-151", "method": "Intracellular delivery of r-GILZ was detected using […]-labeled anti-DDK mAb in permeabilized cells and measured by FACS Calibur. […] The delivery efficiency was assessed by mean fluorescence intensity (D). […] (F)-(I) show supernatants collected at 48 h were assessed for IFN-γ (F), IL-12 (G), IL-17 (H), and IL-10 (I) by ELISA. […] Five micrograms of nuclear extracts were tested for binding of the activated p65 NF-κB subunit to an NF-κB consensus sequence using the TransAM NF-κB ELISA kit. The p65 DNA binding activity was calculated as the ratio of absorbance from PLP139-151-stimulated cells to that of unstimulated cells. Values are the average±S.D. performed 3 times in duplicate. (K)-(L) show real time PCR for T-bet (K) and GATA-3 (L) was performed using 50 ng of cDNA isolated from CD4+LNC of R-EAE mice re-stimulated in vitro with PLP139-151 under the indicated conditions.\nProliferative responses of CD4+ lymph node cells and splenocytes harvested 10 days post-induction upon re-stimulation in vitro with PLP^139-151 in the presence or absence of chariot peptide complexed with purified GILZ protein and/or GILZ mimetics at varying concentrations is determined as described. IL-2, TNF-α, IFN-γ, IL12-p40, IL-17, IL-4, IL-5, IL-10 and TGF-β) of the cells following similar in vitro restimulation is determined by ELISA. Measurement of relative quantities of Th1 and Th2 specific transcription factors is determined by real time PCR using ABI primers."}, "[3]": {"system": "R-EAE in SJL/J mice", "test": "Relapsing remitting EAE (R-EAE) in SJL/J mice, clinical score", "format": "in vivo, mouse", "method": "Relapsing remitting EAE is induced in 8-10-week old female SJL/J mice. The mice were immunized with 100 μg of PLP139-151 in PBS emulsified 1:1 in complete Freund's adjuvant supplemented with 200 μg of Mycobacterium tuberculosis H37RA (Difco Laboratories, Detroit, Mich.) distributed over four sites on the lateral hind flanks subcutaneously. Mice were injected with 100 ng of pertussis toxin (List Biological Laboratories, Campbell, Calif.) intraperitonealy on the day of immunization and 2 days later (Srinivasan et al., (2002) J Immunol, 169(4):2180-8).\nAs opposed to the B10.PL mice which often develop monophasic EAE, PLP139-151 immunized SJL/J mice develop relapsing remitting form of EAE (R-EAE) (Dudhgaonkar et al. (2009) J Immunol, 183(11):7505-13). Groups of SJL/J mice were induced EAE as described above. Animals were observed daily for clinical signs and scored as follows: 0, no clinical signs; 1, limp tail or waddling gait with tail tonicity; 2, waddling gait with limp tail (ataxia); 2.5, ataxia with partial paralysis of one limb; 3, partial hind-limb paralysis; 3.5, full paralysis of one limb with partial paralysis of the second limb; 4, full paralysis of two limbs; 4.5 moribund; and 5, death (1, 8). […] A group of mice received the GILZ peptide:Pep-1 complex on day 12 post-immunization. Groups of mice treated with PBS (vehicle) or Pep-1 alone were included as control.\nA group of mice received the GILZ-P•Pep-1 complex 12 days post-immunization. rh-GILZ was used to evaluate the effect in R-EAE."}, "[4]": {"system": "CD4+ splenocytes/LNC from R-EAE mice", "test": "Ex vivo cytokine secretion (ELISA) by CD4+ cells from treated R-EAE mice", "format": "in vivo, mouse", "method": "Data represent average±S.D. from two experiments (n=9/group). (C)-(H) show GILZ-peptide treatment suppresses Th1 cytokines in R-EAE. […] C, proliferative responses of CD4+ splenocytes are plotted as Δcpm±S.E. #, p<0.05 as compared with the responses of cells from vehicle-treated mice. Supernatant collected at 48 h from separate CD4+ splenocyte cultures were assessed for (D) IL-12, (E) IFN-γ, (F) IL-17, (G) IL-10, and (H) TGF-β by ELISA. * and # represent p<0.05 as compared with vehicle or control peptide-treated groups, respectively.\nSupernatants collected 48 hrs later were assessed for cytokines using Opt EIA kits according to the manufacturer's recommendations (BD PharMingen). Differences between the groups in the mean clinical score and cytokine secretion were determined by a one-way ANOVA with Tukey's posthoc. Results were considered significant at p<0.05.\nas §1"}, "[5]": {"conditions": "Example 1, entire period of observation"}, "[6]": {"conditions": "Example 1, i.p. on day 0 with Pep-1, peptides 500 μg, r-GILZ 2 ng, n=4/group"}, "[7]": {"conditions": "Example 2, single i.p. dose on day 0 with Pep-1, peptides 500 μg, r-GILZ 2 ng, n=9/group"}, "[8]": {"conditions": "Example 1, LNC 45 days post-immunization, PLP139-151 and/or MBP87-99, vs vehicle/control peptide"}, "[9]": {"conditions": "Example 1, LNC 45 days post-immunization, PLP139-151 or MBP87-99, vs vehicle/control peptide"}, "[10]": {"conditions": "MBP87-99 stimulation, mice treated on day 0"}, "[11]": {"conditions": "PLP139-151 re-stimulation, mice treated on day 0"}, "[12]": {"conditions": "mice treated 12 days post-immunization"}}, "note": "Entries after “also recorded” stand apart in the source; their conditions may differ."}
{"substance": "Ac-CLSPEEPAPESPQVPEAPGGSAV-NH2 [GILZ-P]", "values": [{"measurement": "proliferative response (mean Δcpm), maximum inhibition", "setting": "[1]; 250 μM GILZ-P with Pep-1", "result": "1404±106", "unit": "cpm"}, {"measurement": "proliferative response (Δcpm)", "setting": "[1]; GILZ peptide in the absence of Pep-1", "result": "6663±173", "unit": "cpm"}, {"measurement": "proliferative response (Δcpm)", "setting": "[1]; GILZ peptide in the absence of Pep-1, listed as GILZ peptide", "result": "6663+/−173 cpm"}, {"measurement": "proliferative response (Δcpm)", "setting": "[1]; peptide 500 μM in complex with Pep-1, PLP 40 μg/ml, 72 h", "result": "1702+/−217 cpm"}, {"measurement": "proliferative response, in words", "setting": "[1]", "result": "significantly decreased proliferative response"}, {"measurement": "proliferative response, in words", "setting": "[1]; listed as GILZ peptide", "result": "greater inhibition than those treated with r-GILZ at all concentrations"}, {"measurement": "GATA-3 mRNA", "setting": "[2]", "result": "elevated"}, {"measurement": "T-bet mRNA", "setting": "[2]", "result": "significantly decreased"}, {"measurement": "GATA-3 mRNA", "setting": "[2]; listed as GILZ-peptide", "result": "up-regulated"}, {"measurement": "T-bet mRNA", "setting": "[2]; listed as GILZ-peptide", "result": "down-regulated"}, {"measurement": "mean clinical score (severity of clinical disease)", "setting": "[3]; Example 1, GILZ peptide 500 μg i.p. on day 12 post-induction", "result": "1.78+/−1.01"}, {"measurement": "average clinical score per day, in words", "setting": "[3]; Example 1, day 0/day 12 treatment vs control groups, listed as GILZ peptide", "result": "significantly reduced scores"}, {"measurement": "average clinical score per day, in words", "setting": "[3]; Example 1, day 0/day 12 treatment vs control groups, listed as GILZ-peptide", "result": "significantly lower"}, {"measurement": "clinical relapse after initial remission", "setting": "[3]; [5]", "result": "exhibited no relapse"}, {"measurement": "mean clinical score (severity of clinical disease)", "setting": "[3]; [6]", "result": "0.56+/−0.21"}, {"measurement": "clinical relapse after initial remission", "setting": "[3]; Example 2", "result": "exhibited minimal relapse"}, {"measurement": "mean total clinical score", "setting": "[3]; Example 2, Pep-1•GILZ-P single dose on day 12", "result": "15.75±4.85"}, {"measurement": "mean total clinical score", "setting": "[3]; [7]", "result": "2.25±0.72"}, {"measurement": "average clinical score per day, in words", "setting": "[3]; Example 2, vs control groups", "result": "significantly lower"}, {"measurement": "IL-10 secretion", "setting": "[4]; [8]", "result": "higher"}, {"measurement": "IFN-γ secretion", "setting": "[4]; [9]", "result": "significantly reduced"}, {"measurement": "IL-12 secretion", "setting": "[4]; [9]", "result": "significantly reduced"}, {"measurement": "TNF-α secretion", "setting": "[4]; [9]", "result": "significantly reduced"}, {"measurement": "IFN-γ secretion", "setting": "[4]; [10]", "result": "97.4 ± 6.9", "unit": "pg/mL"}, {"measurement": "IL-10 secretion", "setting": "[4]; [10]", "result": "1850.8 ± 90", "unit": "pg/mL"}, {"measurement": "IL-12 secretion", "setting": "[4]; [10]", "result": "28.4 ± 1.6", "unit": "pg/mL"}, {"measurement": "IL-17 secretion", "setting": "[4]; [10]", "result": "10.43 ± 0.4", "unit": "pg/mL"}, {"measurement": "TGF-β secretion", "setting": "[4]; [10]", "result": "33.31 ± 4", "unit": "pg/mL"}, {"measurement": "IFN-γ secretion", "setting": "[4]; [11]", "result": "96.5 ± 7.1", "unit": "pg/mL"}, {"measurement": "IL-12 secretion", "setting": "[4]; [11]", "result": "12.7 ± 0.47", "unit": "pg/mL"}, {"measurement": "IL-17 secretion", "setting": "[4]; [11]", "result": "10.85 ± 0.3", "unit": "pg/mL"}, {"measurement": "IL-10 secretion", "setting": "[4]; PLP139-151 stimulation, mice treated on day 0", "result": "2316 ± 52.9", "unit": "pg/mL"}, {"measurement": "IL-12 secretion, in words", "setting": "[4]; [12]", "result": "significantly lower"}, {"measurement": "reduction in IFN-γ, in words", "setting": "[4]; [12]", "result": "not significant"}]}
{"substance": "r-GILZ: recombinant glucocorticoid induced leucine zipper protein (Abnova; OriGene with C-terminal DDK)", "values": [{"measurement": "proliferative response (Δcpm)", "setting": "[1]; r-GILZ 200 ng with Pep-1, PLP 40 μg/ml, 72 h", "result": "4658+/−266 cpm"}, {"measurement": "proliferative response, in words", "setting": "[1]", "result": "significantly decreased proliferative response"}, {"measurement": "GATA-3 mRNA", "setting": "[2]", "result": "up-regulated; also recorded: elevated"}, {"measurement": "T-bet mRNA", "setting": "[2]", "result": "down-regulated; also recorded: significantly decreased"}, {"measurement": "average clinical score per day, in words", "setting": "[3]; Example 1, day 0/day 12 treatment vs control groups", "result": "significantly reduced scores; also recorded: significantly lower"}, {"measurement": "clinical relapse after initial remission", "setting": "[3]; [5]", "result": "exhibited no relapse"}, {"measurement": "mean clinical score (severity of clinical disease)", "setting": "[3]; [6]", "result": "0.17+/−0.14"}, {"measurement": "clinical relapse after initial remission", "setting": "[3]; Example 2", "result": "exhibited minimal relapse"}, {"measurement": "mean total clinical score", "setting": "[3]; [7]", "result": "7.13±2.8"}, {"measurement": "average clinical score per day, in words", "setting": "[3]; Example 2, vs control groups", "result": "significantly lower"}, {"measurement": "IL-10 secretion", "setting": "[4]; [8]", "result": "higher"}, {"measurement": "IFN-γ secretion", "setting": "[4]; [9]", "result": "significantly reduced"}, {"measurement": "IL-12 secretion", "setting": "[4]; [9]", "result": "significantly reduced"}, {"measurement": "TNF-α secretion", "setting": "[4]; [9]", "result": "significantly reduced"}, {"measurement": "IL-10 secretion", "setting": "[4]; [10]", "result": "1667 ± 63.7", "unit": "pg/mL"}, {"measurement": "TGF-β secretion", "setting": "[4]; [10]", "result": "31.7 ± 0.8", "unit": "pg/mL"}, {"measurement": "IFN-γ secretion", "setting": "[4]; [11]", "result": "100.5 ± 6.8", "unit": "pg/mL"}, {"measurement": "IL-12 secretion", "setting": "[4]; [11]", "result": "22.5 ± 01.05", "unit": "pg/mL"}, {"measurement": "IL-17 secretion", "setting": "[4]; [11]", "result": "10.66 ± 0.2", "unit": "pg/mL"}]}
